# Results reported in paper PMC11637483, “Dissecting caspase-2-mediated cell death: from intrinsic PIDDosome activation to chemical modulation” (Protein & Cell, 2024).
# How the values were obtained:
# [1] = test system: HeLa-CASP2−/−CASP3−/−GSDMD−/− (TKO) cells; test: Cell death in control HeLa triple knockout cells without active caspase-2; format: cell-based, human
# Description: Specific chemical compounds are powerful tools for dissecting target-related signaling mechanisms in biological contexts ([Beck et al., 2022]; [Zhang et al., 2012]). Prompted by this notion and possibly to identify a compound that could activate the PIDDosome, we designed a cell death-based high-throughput chemical screen in HeLa cells, in which a triple knockout of CASP2, CASP3, and GSDMD were constructed. CASP3 and GSDMD deficiency served as the background to minimize compound-induced nonspecific cytotoxicity and undesired pyroptosis. Using the triple knockout cells as the control, additional expression of exogenous caspase-2 allows the identification of compounds that can specifically activate the caspase-2-BID pathway and trigger apoptosis through caspase-7. […]
# Figure 3. […] The ratios of the cell viability between the two groups are calculated with 3 as a cutoff for positive compound hit selection. […] Processing of caspase-2, -3, and -7 was analyzed by immunoblotting. […] ATP-based cell viability in panels (B and D) is expressed as mean ± s.d. from three technical replicates. […]
# Drug-related Screening Library (25 × 384-well plate, more than 7,000 compounds) was used for the chemical screen in the TKO HeLa cells rescued with exogenous caspase-2 expression. […] After treatment for 12 h, the cell viability was measured by the ATP assay. […]
# [2] = test system: mouse caspase-2-expressing HeLa cells; test: Cell death and caspase-2 processing in HeLa TKO cells expressing mouse caspase-2; format: cell-based; details: high concentrations of HUHS015
# Description: Figure 4. HUHS015 activates human caspase-2 directly through specific targeting of the interdomain linker of caspase-2. (A) The direct binding between HUHS015-36 and MBP-fused human caspase-2 pro-domain was detected by microscale thermophoresis (MST). MST profiles for raw binding signals and affinity (KD) measurement are shown. The calculated dissociation constant (KD) is expressed as means ± s.d. from two determinations. (B) Sequence alignment of the pro-domain (residues 1–169) of human and mouse caspase-2. CARD domain annotation is shown on top of the sequences. Identical residues are in red background and conserved ones are in red. Numbers of starting residues are indicated on the left. Different residues in the interdomain linker (residues 122–169) were highlighted with green color. (C) HUHS015 activates human but not mouse caspase-2. HeLa TKO cells rescued with human or mouse caspase-2 expression were treated with HUHS015 for the indicated time. […] ATP-based cell viability in panels (C–E) is expressed as mean ± s.d. from three technical replicates. […] TEXT PRINTED IN THE PICTURE: (A) HUHS015-36: MBP-CASP2(32–165) vs. HUHS015-36: KD (μmol/L): 22.05 ± 6.151; MBP vs. HUHS015-36: KD (μmol/L): Not detected […]
# Cell viability was measured by the ATP assay using the CellTiter-Glo® Luminescent Cell Viability Assay kit (Promega).
structure (smiles),measurement,setting,value
Cc1ccc2nc(-n3nc(C)c(Cc4ccccc4)c3O)[nH]c2c1 [HUHS015],cell death,[1]; TKO cells expressing protease-deficient caspase-2 C320A,no cell death
same,"cell death selectivity, caspase-2-expressing vs control TKO cells","[1]; chemical screen, 12 h",robust cell death selectively in caspase-2-expressing but not the control triple knockout cells
same,apoptosis / caspase-2 processing,[2],no apoptosis
